Laboratory results taken from PubChem BioAssay AID1259353.

The compounds below were run on Trichuris muris adults ex vivo, motility imaging, 24 h (assay: Trichuris muris adult motility inhibition, dose response, whole organism, INVAPP motility imaging, 24 h (AID 1259353)).

Row | EC50 [µM] | SMILES
1 | 28 | CNc1nc(NCCOc2ccccc2)c2sccc2n1
2 | 26 | COCCNc1nc(NCCOc2ccccc2Cl)c2sccc2n1
3 | 44 | CNc1nc(NCCOc2ccccc2Cl)c2sccc2n1
4 | 70 | COc1ccccc1CNc1nc(NCCOc2ccccc2Cl)c2sccc2n1
